Key:
Tpm3.1 [1] = target: T1, Tpm3.1 (Homo sapiens, UniProt P06753); assay: Actin depolymerisation assay; format: biochemical; settings: 50 μmol/L test compound, pyrene-labelled F-actin, 160 minutes
Protocol: A 12 μmol/L solution of labelled F-actin was prepared by polymerising the monomeric actin (35% pyrene labelled Rabbit Muscle (Cytoskeleton Inc)) into filaments in the presence of buffer T (100 mmol/L NaCl; 10 mmol/L Tris HCl pH 7.5; 2 mmol/L MgCl2; 1 mmol/L EGTA; 0.5 mmol/L DTT) with added ATP (0.2 mmol/L), for 1 hour in the dark at room temperature. Tpm3.1 (10 μmol/L) was reduced in buffer T containing 1 mmol/L DTT at 70° C. for 6 minutes and centrifuged at 60,000 rpm for 30 minutes to remove nonreduced dimers. […] Duplicate samples were diluted 12-fold using an F-actin polymerisation buffer (100 mmol/L NaCl; 10 mmol/L Tris HCl pH 7; 2 mmol/L MgCl2; 1 mmol/L EGTA; 0.2 mmol/L ATP; 1 mmol/L DTT) and the depolymerisation rates of F-actin alone, F-actin/Tpm3.1, and the F-actin/Tpm3.1/test compound filament complex were measured using a Costar 3915 fluorescence plate reader (407 nm) at 36-second intervals for 160 minutes at room temperature. Data were normalized to the initial fluorescence value and polymerisation curves of duplicate samples were fitted to a two-phase exponential decay model using OriginPro 9.1 (OriginLab) (FIG. 3A). Percent polymerisation was determined at t160 as a function of to (100%) (FIG. 3B, p<0.0001).
Target sequence in this assay (P06753 1-248 isoform P06753-2): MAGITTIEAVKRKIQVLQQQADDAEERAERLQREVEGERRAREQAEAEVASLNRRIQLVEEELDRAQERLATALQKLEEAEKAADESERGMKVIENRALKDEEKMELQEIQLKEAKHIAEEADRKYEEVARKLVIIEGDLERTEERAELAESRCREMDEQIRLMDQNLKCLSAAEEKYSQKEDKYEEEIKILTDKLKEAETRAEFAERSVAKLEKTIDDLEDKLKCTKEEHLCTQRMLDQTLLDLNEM

[2] = tested on: A2780 ovarian cancer cells; settings: Bliss score
Protocol: (§3) The A2780 cell line was maintained as a monolayer in Dulbeccos Modified Eagles medium (DMEM) supplemented with 10% foetal bovine serum (FBS) and grown at 37° C. in a humidified atmosphere with 5% CO2. […] Each screening plate contained one 6×6 dose matrix for two drugs using two-fold dilution steps. […] Viability was measured after 72 hours using a standard MTS assay.
(§4) Synergistic drug interactions were determined for each pairwise drug combination by applying the Bliss-independence model that assumes independence of drug mechanisms.
(§5) The Bliss additivism model was used to calculate a predicted combined response C to two single agents with responses A and B (using GI values), as follows:
(§6) The final score for any combination was reported as the difference between the value predicted by the additive model and the experimentally observed value, normalised to 100. Using GI values the maximum possible synergy score is 100, with 0 indicating no synergy and negative indicating possible antagonism. Scores were also reported as a “Max synergy” score, which is the highest individual synergy score for each combination matrix, and a “Total synergy” score, which was obtained by summation of each individual synergy score for the matrix.

A2780 (ovarian) = assay: Anti-proliferative activity (Cell-Titre luminescence) against A2780 ovarian cancer cells; format: cell-based; settings: Homo sapiens, A2780, 72 h, 72 h exposure, Cell-Titre luminescent reagent
How it was run: (§1)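 EC50 derived by nonlinear variable-slope sigmoidal fit of luminescent Cell-Titre viability, normalised to vehicle control. Compound (0.1–30 μM, six concentrations) applied for 72 h after 24 h attachment at 37 °C, 5% CO2.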

[3] = tested on: SK-N-SH neuroblastoma cells; assay: Anti-proliferative activity (MTS assay) against SK-N-SH neuroblastoma cells; format: cell-based; settings: Homo sapiens, SK-N-SH, 72 h
Protocol: The ability of compounds of the disclosure to inhibit the proliferation of SK-N-SH neuroblastoma cells was also assessed. […] Cell viability was normalised to control (vehicle alone) and dose response curves and IC50 values (Table 4) were determined using Graph Pad Prism 6.

[4] = tested on: A2780 ovarian cancer cells; assay: cells; settings: Homo sapiens, A2780, 72 h, read-out: IC50 values used for the dose matrix (compounds)
Protocol: as §3, §4, §5, §6

Tpm3.1 [5] = target: T1, Tpm3.1; assay: Circular dichroism spectroscopy, thermal unfolding of Tpm3.1 peptides; format: binding; design: N-terminus (residues 2-80 with an initial Ala-Gly dipeptide to mimic N-terminal acetylation) of Tpm3.1; Peptides corresponding to the C-terminus (residues 139-248) and N-terminus; made in house; settings: test compound 100 μM, peptide 20 μM, CD at 222 nm
Protocol: The interactions of compounds 11, 13, 32 and 92 with the N-terminus and overlap region of Tpm3.1 were measured using circular dichroism (CD) spectroscopy (see FIG. 1). Peptides corresponding to the C-terminus (residues 139-248) and N-terminus (residues 2-80 with an initial Ala-Gly dipeptide to mimic N-terminal acetylation) of Tpm3.1 were prepared as described in the literature (Janco et al., 2019). CD spectra and thermal unfolding isotherms of N_82AA_Tpm3.1 and C_109AA_Tpm3.1 peptides were acquired on a Chirascan Plus CD Spectrometer (Applied Photophysics Limited, U.K.) in stoppered 0.5 mm cuvettes (48/Q/0.5; Starna Scientific Ltd.). Proteins were dialyzed O/N against 10 mM NaH2 PO4, 150 mM NaCl, 75 μM TCEP (added prior to experiment), 1% (v/v) acetonitrile pH 7 buffer. Final concentration of peptides was 20 μM. Tpm samples containing the test compound (100 μM) were incubated at 37° C. O/N. CD spectra were measured from 195 to 260 nm with a 1 nm step size and a […], taking 3 to 4 averages at 37° C. The thermal unfolding was carried at 222 nm over the range 20-85° C. at the rate of 1° C./min. Sample was cooled down to the initial temperature and heating procedure was repeated 2 to 3 times. To obtain information of the major thermal transitions from individual isotherms, data were further smoothed by the Savitzky-Golay method (5-point window), differentiated and then fitted to multiple Gaussian peaks as described previously (Janco et al., 2012) (FIG. 2).
Target sequence in this assay (P06753 with tags, fused parts or gaps isoform P06753-2): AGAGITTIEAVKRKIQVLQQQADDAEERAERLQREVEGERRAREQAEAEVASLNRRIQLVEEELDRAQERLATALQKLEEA

MIA PaCa-2 (pancreatic) = assay: Anti-proliferative activity against MIA PaCa-2 pancreatic cancer cells; format: cell-based; settings: Homo sapiens, 72 h exposure
Protocol: (§2) The ability of compounds of the invention to inhibit the proliferation of cancer cells representative of non-small cell lung cancer and ovarian cancer (Table 2), pancreatic cancer, colorectal cancer and prostate cancer (Table 3) was assessed. Briefly, a predetermined number of cells as calculated from cell growth assays for each of the cell lines employed were seeded into their respective culture medium (using ATCC culture parameters—http://www.atcc.org) and cultured for 24 h at 37° C. and 5% CO2 in 96-well culture plates. Once attached, each cell line was then exposed to various concentrations of each respective analogue (30, 10, 3, 1, 0.3 and 0.1 μM), cultured for a further 72 h and exposed to Cell-Titre luminescent reagent (100 μL/well) for a further 30 min. Luminescence was captured using an EnVision multilabel reader and the data for each analogue concentration compared against no treatment control. Cell viability was normalised to control (vehicle alone) and dose response curves, and half maximal effective concentration (EC50) values were determined using Graph Pad Prism 6 (nonlinear regression sigmoidal dose-response variable slope).

[6] = tested on: Tpm3.1-containing actin microfilaments; assay: Disruption of Tpm3.1-containing actin microfilaments in SK-N-SH cells (imaging and quantitation); format: cell-based; settings: SK-N-SH cells expressing Tpm3.1-mCherry, 24 hours, two concentrations
Protocol: The ability of compounds 57, 87 and 92 to disrupt Tpm3.1-containing actin microfilaments was investigated in SK-N-SH neuroblastoma cells that express Tpm3.1 labelled with the mCherry fluorophore. Cells were seeded at 3×10^4 cells per well in a volume of 1000 μL complete media onto a 12 well plate containing 13 mm coverslips and left to plate down for 24 hours prior to treatment. Cells were then treated with DMSO and two concentrations of the test compounds. 24 hours post-treatment, cells were fixed with 16% paraformaldehyde (PBS) and stained with 488-Atto-Phalloidin to visualise the actin filament bundles. Single plane images were obtained using the Olympus IX83 epi-fluorescence microscope. Ten fields of view were collected for both Tpm3.1 mCherry fluorophore (FIG. 4) and 488-Atto-Phalloidin (FIG. 5) with each treatment condition.
Quantitation of either Tpm3.1 mCherry filaments or 488-Atto-Phalloidin filaments was performed using ImageJ 1.52p software (ImageJ, NIH). The mean pixel intensity from a cell was measured by using a line across the entire cell cytoplasmic area above or below the nuclear region. The line was made to cross the filament bundles at a […] for the measurement rather than run along a single filament. A total of n=100 cells were measured from ten fields of view. Cells with pixel intensities that were more than twice the average intensity in the field were excluded from the measurement. The mean pixel intensity from n=100 cells was imported into Microsoft Excel to obtain the average intensity of either Tpm3.1 mCherry filaments or 488-Atto-Phalloidin filaments from each treatment condition. Values were normalised as a percent of the 0 μM control in order to generate a bar graph.

PC3 (prostate) = assay: Anti-proliferative activity against PC3 prostate cancer cells; format: cell-based; settings: 72 h exposure
Protocol: as §2

Caco-2 (colorectal) = assay: Anti-proliferative activity against Caco-2 colorectal cancer cells; format: cell-based; settings: Homo sapiens, 72 h exposure
Protocol: as §2

A549 (NSCLC) = assay: Anti-proliferative activity (Cell-Titre luminescence) against A549 non-small cell lung cancer cells; format: cell-based; settings: Homo sapiens, A549, 72 h, 72 h exposure, Cell-Titre luminescent reagent
How it was run: as §1

OCCCNc1nc(NCCc2cccc(C(F)(F)F)c2)nc2ccccc12 [Compound 92, 3-((2-((3-(trifluoromethyl)phenethyl)amino)quinazolin-4-yl)amino)propan-1-ol]
Inhibition of Tpm3.1 protection of actin filaments from depolymerisation (Tpm3.1 [1]): inhibit the ability of Tpm3.1 to protect actin filaments from depolymerisation | Paclitaxel Max. Synergy ([2]; combination with paclitaxel, highest individual score of 6×6 matrix): 17.97 | Paclitaxel Total Synergy ([2]; combination with paclitaxel, sum over matrix): 100.06 | Vinorelbine Max. Synergy ([2]; combination with vinorelbine, highest individual score of 6×6 matrix): 27.55 | Vinorelbine Total Synergy ([2]; combination with vinorelbine, sum over matrix): 204.68 | IC50 (A2780 (ovarian)): 2.22 µM | IC50 [3]: 2 µM | IC50 [4]: 5 µM | Effect on melting profile of the Tpm3.1 N-terminal peptide construct (Tpm3.1 [5]): alter the melting profile | Effect on stability of the Tpm3.1 N-terminal peptide (Tpm3.1 [5]): decrease the stability | IC50 (MIA PaCa-2 (pancreatic)): 3.19 µM | Disruption of Tpm3.1-containing actin microfilaments [6]: disrupt Tpm3.1-containing actin microfilaments in a dose-dependent manner | IC50 (PC3 (prostate)): 4.49 µM | IC50 (Caco-2 (colorectal)): 2.48 µM | IC50 (A549 (NSCLC)): 1.3 µM
